According to patent US12624309B2, “Enol ether properfume” (Firmenich SA, priority 2020, dated 2026):

Assay: Acid-catalyzed hydrolysis of enol ethers in THF/1 M HCl, percent remaining by GC-FID
Assay type: physicochemical
Details: for percent remaining, 24 h / percent remaining, 48 h / percent remaining, 72 h / percent remaining, 168 h / percent remaining, 336 h / percent remaining, 504 h / percent remaining, 672 h / percent remaining, initial / rate of hydrolysis / hydrolytic stability compared to corresponding enol ethers prepared from alkyl alcohols: THF/1M HCl (80:20 v/v); for percent remaining, 24 h / percent remaining, 48 h / percent remaining, 72 h / percent remaining, 168 h / percent remaining, 336 h / percent remaining, 504 h / percent remaining, 672 h / percent remaining, initial: room temperature; for percent remaining, initial: time zero; for enol ether remained after 504 h (21 days): Table 1, THF/1M HCl; for rate of hydrolysis / hydrolytic stability compared to corresponding enol ethers prepared from alkyl alcohols: in words
Description: Each enol ether was dissolved in a 4:1 THF/1 M HCl mixture and the percent remaining over time measured relative to an internal standard.
After mixing, 2 mL of this solution were removed with a volumetric pipet and used to obtain the time zero measurement. 2 mL of 1 M HCl were mixed with the remaining 8 mL of the THF solution. This mixture was divided into 5 mL vials (1 mL per vial). The vials were gently topped with nitrogen and fitted with screw caps around which parafilm was wrapped. The vials were stored at room temperature until analyzed. For analyses, 2 mL of ethyl acetate was added to a vial and mixed. After phase separation, the top phase was collected and washed with saturated sodium carbonate (1 mL). Samples of the organic phase were analyzed by GC-FID. For the time zero sample, 0.5 mL of deionized water was added to the 2 mL taken from the original THF solution. 1 mL of this solution was added to a 5 mL vial and diluted with 2 mL of ethyl acetate and mixed. The top phase was collected and washed with saturated sodium carbonate (1 mL). The top phase then was analyzed by GC-FID. The percent of enol ether remaining was determined by dividing the peak area ratio of the enol ether to internal standard by the ratio measured at time zero.

CC/C=C\CCOC(=O)C(C)OC=Cc1ccccc1 (racemic) [Compound 39, (±)-(Z)-hex-3-en-1-yl 2-(styryloxy)propanoate]
percent remaining, 24 h: 96.3%
percent remaining, 48 h: 95.3%
percent remaining, 72 h: 90.7%
percent remaining, 168 h: 79.6%
percent remaining, 336 h: 67.3%
percent remaining, 504 h: 53.0%
percent remaining, 672 h: 41.2%
percent remaining, initial: 100%

CC(OC=Cc1ccccc1)C(=O)OCCc1ccccc1 (racemic) [Compound 40, (±)-phenethyl 2-(styryloxy)propanoate]
percent remaining, 24 h: 97.3%
percent remaining, 48 h: 95.0%
percent remaining, 72 h: 91.8%
percent remaining, 168 h: 78.5%
percent remaining, 336 h: 59.0%
percent remaining, 504 h: 53.0%
percent remaining, 672 h: 41.4%
percent remaining, initial: 100%

CCCCCC(CC)OC(=O)C(C)OC=Cc1ccccc1 (racemic) [Compound 41, (±)-octan-3-yl 2-(styryloxy)propanoate]
percent remaining, 24 h: 99.7%
percent remaining, 48 h: 99.2%
percent remaining, 72 h: 98.1%
percent remaining, 168 h: 94.1%
percent remaining, 336 h: 91.7%
percent remaining, 504 h: 88.4%
percent remaining, 672 h: 84.4%
percent remaining, initial: 100%

CC/C=C\CCOC(=O)C(C)OC=Cc1ccc(OC)cc1 (racemic) [Compound 42, (±)-(Z)-hex-3-en-1-yl 2-((4-methoxystyryl)oxy)propanoate]
percent remaining, 24 h: 95.1%
percent remaining, 48 h: 93.9%
percent remaining, 72 h: 89.8%
percent remaining, 168 h: 78.1%
percent remaining, 336 h: 60.1%
percent remaining, 504 h: 46.8%
percent remaining, 672 h: 35.2%
percent remaining, initial: 100%
enol ether remained after 504 h (21 days): 46.8%

CCCCCC(CC)OC(=O)C(C)OC=C(C)c1ccccc1 (racemic) [Compound 44, (±)-octan-3-yl 2-((2-phenylprop-1-en-1-yl)oxy)propanoate]
rate of hydrolysis / hydrolytic stability compared to corresponding enol ethers prepared from alkyl alcohols: improved hydrolytic stability
percent remaining, 24 h: 99.3%
percent remaining, 48 h: 99.5%
percent remaining, 72 h: 98.9%
percent remaining, 168 h: 96.5%
percent remaining, 336 h: 93.3%
percent remaining, 504 h: 90.4%
percent remaining, 672 h: 88.6%
percent remaining, initial: 100%

CCC(C)OC(=O)C(C)OC=C(C)c1ccc(C)cc1 (racemic) [Compound 46, (±)-sec-butyl 2-((2-(p-tolyl)prop-1-en-1-yl)oxy)propanoate]
rate of hydrolysis / hydrolytic stability compared to corresponding enol ethers prepared from alkyl alcohols: Slower rates of hydrolysis
percent remaining, 24 h: 98.0%
percent remaining, 48 h: 97.0%
percent remaining, 72 h: 95.8%
percent remaining, 168 h: 90.9%
percent remaining, 336 h: 82.4%
percent remaining, 504 h: 74.5%
percent remaining, 672 h: 66.6%
percent remaining, initial: 100%

CC/C=C\CCOC(=O)C(C)OC=C(C)c1ccc(OC)cc1 (racemic) [Compound 47, (±)-(Z)-hex-3-en-1-yl 2-((2-(4-methoxyphenyl)prop-1-en-1-yl)oxy)propanoate]
percent remaining, 24 h: 96.6%
percent remaining, 48 h: 94.4%
percent remaining, 72 h: 91.2%
percent remaining, 168 h: 81.6%
percent remaining, 336 h: 65.0%
percent remaining, 504 h: 51.1%
percent remaining, 672 h: 40.0%
percent remaining, initial: 100%

CCC(C)OC(=O)C(C)OC=C(C)c1ccc(OC)cc1 (racemic) [Compound 49, (±)-sec-butyl 2-((2-(4-methoxyphenyl)prop-1-en-1-yl)oxy)propanoate]
percent remaining, 24 h: 96.8%
percent remaining, 48 h: 94.8%
percent remaining, 72 h: 93.8%
percent remaining, 168 h: 87.6%
percent remaining, 336 h: 76.9%
percent remaining, 504 h: 67.6%
percent remaining, 672 h: 56.2%
percent remaining, initial: 100%

CC(=COCCc1ccccc1)c1ccc(C)cc1 [1-methyl-4-(1-phenethoxyprop-1-en-2-yl)benzene, reference compound]
percent remaining, 24 h: 97.8%
percent remaining, 48 h: 95.5%
percent remaining, 72 h: 93.9%
percent remaining, 168 h: 85.0%
percent remaining, 336 h: 70.4%
percent remaining, 504 h: 57.3%
percent remaining, 672 h: 42.5%
percent remaining, initial: 100%

CC(=COC(C)(C)CCCC(C)C)c1ccccc1 [(1-(2,6-dimethylheptan-2-yloxy)prop-1-en-2-yl)benzene, reference compound]
percent remaining, 24 h: 92.9%
percent remaining, 48 h: 85.7%
percent remaining, 72 h: 80.5%
percent remaining, 168 h: 60.3%
percent remaining, 336 h: 41.7%
percent remaining, 504 h: 28.1%
percent remaining, 672 h: 17.9%
percent remaining, initial: 100%

CCCCCC(CC)OC=C(C)c1ccccc1 (centres unmarked) [(1-(octan-3-yloxy)prop-1-en-2-yl)benzene, reference compound]
percent remaining, 24 h: 96.2%
percent remaining, 48 h: 92.4%
percent remaining, 72 h: 89.3%
percent remaining, 168 h: 76.6%
percent remaining, 336 h: 57.3%
percent remaining, 504 h: 44.5%
percent remaining, 672 h: 33.6%
percent remaining, initial: 100%

CC(=COCCc1ccccc1)c1ccccc1 [(1-phenethoxyprop-1-en-2-yl)benzene, reference compound]
percent remaining, 24 h: 98.4%
percent remaining, 48 h: 96.5%
percent remaining, 72 h: 93.8%
percent remaining, 168 h: 86.1%
percent remaining, 336 h: 72.7%
percent remaining, 504 h: 59.0%
percent remaining, 672 h: 43.7%
percent remaining, initial: 100%

CCCCCC(CC)OC=Cc1ccccc1 (centres unmarked) [(2-(octan-3-yloxy)vinyl)benzene, reference compound]
percent remaining, 24 h: 84.9%
percent remaining, 48 h: 72.0%
percent remaining, 72 h: 61.7%
percent remaining, 168 h: 33.6%
percent remaining, 336 h: 10%
percent remaining, 504 h: 4.5%
percent remaining, 672 h: 0%
percent remaining, initial: 100%
enol ether remained after 504 h (21 days): 4.5%

C(=Cc1ccccc1)OCCc1ccccc1 [(2-phenethoxyvinyl)benzene, reference compound]
percent remaining, 24 h: 94.6%
percent remaining, 48 h: 90.0%
percent remaining, 72 h: 83.7%
percent remaining, 168 h: 66.4%
percent remaining, 336 h: 45.2%
percent remaining, 504 h: 35.9%
percent remaining, 672 h: 25.0%
percent remaining, initial: 100%
enol ether remained after 504 h (21 days): 39.5%

COC(=O)C(C)(C)OC=Cc1ccccc1 [Compound 10, methyl 2-methyl-2-(styryloxy)propanoate]
percent remaining, 24 h: 97.2%
percent remaining, 48 h: 95.3%
percent remaining, 72 h: 93.7%
percent remaining, 168 h: 86.0%
percent remaining, 336 h: 77%
percent remaining, 504 h: 70.8%
percent remaining, 672 h: 64.1%
percent remaining, initial: 100%
